Data as given in patent US20230041563A1, “N-(1,3,4-OXADIAZOL-2-YL)ARYLCARBOXAMIDES OR SALTS THEREOF, PREPARATION METHODS, HERBICIDAL COMPOSITIONS AND USES THEREOF” (priority 2018, published 2023).

System: Rice
Test: Transplanted rice safety evaluation and weed control effect evaluation in rice field
Assay type: in vivo, rice (japonica rice/Indica rice)
Conditions: Table 7, dose 125 g a.i./ha, 21 days after treatment
Summary of the method: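 Japonica and Indica rice at 3-leaf stage transplanted into flooded paddy soil (3-4 cm water). Compound applied 5 days after transplanting. Weeds scored visually on 0-5 scale at 14 days; rice injury at 21 days.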

CCSc1c(C(F)(F)F)ccc(C(=O)Nc2nnc(C)o2)c1F [Compound 1-4]
Rice (safety level): 0 (Level 0: growth control rate is less than 5%)
